Test results taken from ChEMBL document CHEMBL3272130, “Synthesis and hypotensive activity of some cyclopentano-1,2,3,4-tetrahydroisoquinolines” (J Med Chem, 1977).

Assays:
Rattus norvegicus [1] = experiment: Cardiovascular activity in deoxycorticosterone acetate treated hypertensive CD rat assessed as change in heart rate at 50 mg, ip after 2 hrs relative to control; format: ADME, organism-based; conditions: in vivo
Rattus norvegicus [2] = experiment: Hypotensive activity in deoxycorticosterone acetate treated hypertensive CD rat assessed as change in blood pressure at 50 mg, ip after 2 hrs relative to control; format: functional
Rattus norvegicus [3] = experiment: Cardiovascular activity in deoxycorticosterone acetate treated hypertensive CD rat assessed as change in heart rate at 50 mg, ip after 1 hr relative to control; format: ADME, organism-based; conditions: in vivo
Rattus norvegicus [4] = experiment: Cardiovascular activity in deoxycorticosterone acetate treated hypertensive CD rat assessed as change in heart rate at 50 mg, ip after 24 hrs relative to control; format: ADME, organism-based; conditions: in vivo
Rattus norvegicus [5] = experiment: Hypotensive activity in deoxycorticosterone acetate treated hypertensive CD rat assessed as change in blood pressure at 50 mg, ip after 24 hrs relative to control; format: functional
Rattus norvegicus [6] = experiment: Cardiovascular activity in deoxycorticosterone acetate treated hypertensive CD rat assessed as change in heart rate at 50 mg, ip after 4 hrs relative to control; format: ADME, organism-based; conditions: in vivo
Rattus norvegicus [7] = experiment: Hypotensive activity in deoxycorticosterone acetate treated hypertensive CD rat assessed as change in blood pressure at 50 mg, ip after 4 hrs relative to control; format: functional
Rattus norvegicus [8] = experiment: Hypotensive activity in deoxycorticosterone acetate treated hypertensive CD rat assessed as change in blood pressure at 50 mg, ip after 1 hr relative to control; format: functional
[9] = Toxicity in ip dosed Swiss-Webster mouse after 24 hrs; format: organism-based; conditions: in vivo
Rattus norvegicus [10] = experiment: Hypotensive activity in deoxycorticosterone acetate treated hypertensive CD rat assessed as change in blood pressure at 100 mg, ip after 2 hrs relative to control; format: functional
Rattus norvegicus [11] = experiment: Cardiovascular activity in deoxycorticosterone acetate treated hypertensive CD rat assessed as change in heart rate at 100 mg, ip after 1 hr relative to control; format: ADME, organism-based; conditions: in vivo
Rattus norvegicus [12] = experiment: Cardiovascular activity in deoxycorticosterone acetate treated hypertensive CD rat assessed as change in heart rate at 100 mg, ip after 4 hrs relative to control; format: ADME, organism-based; conditions: in vivo
Rattus norvegicus [13] = experiment: Cardiovascular activity in deoxycorticosterone acetate treated hypertensive CD rat assessed as change in heart rate at 100 mg, ip after 2 hrs relative to control; format: ADME, organism-based; conditions: in vivo
Rattus norvegicus [14] = experiment: Hypotensive activity in deoxycorticosterone acetate treated hypertensive CD rat assessed as change in blood pressure at 100 mg, ip after 1 hr relative to control; format: functional
Rattus norvegicus [15] = experiment: Cardiovascular activity in deoxycorticosterone acetate treated hypertensive CD rat assessed as change in heart rate at 100 mg, ip after 24 hrs relative to control; format: ADME, organism-based; conditions: in vivo
Rattus norvegicus [16] = experiment: Hypotensive activity in deoxycorticosterone acetate treated hypertensive CD rat assessed as change in blood pressure at 100 mg, ip after 4 hrs relative to control; format: functional
Rattus norvegicus [17] = experiment: Hypotensive activity in deoxycorticosterone acetate treated hypertensive CD rat assessed as change in blood pressure at 100 mg, ip after 24 hrs relative to control; format: functional

| Compound | Activity (Rattus norvegicus [1]) [%] | Activity (Rattus norvegicus [2]) [%] | Activity (Rattus norvegicus [3]) [%] | Activity (Rattus norvegicus [4]) [%] | Activity (Rattus norvegicus [5]) [%] | Activity (Rattus norvegicus [6]) [%] | Activity (Rattus norvegicus [7]) [%] | Activity (Rattus norvegicus [8]) [%] | LD50 at 24 h [9] [mg/kg] | Activity (Rattus norvegicus [10]) [%] | Activity (Rattus norvegicus [11]) [%] | Activity (Rattus norvegicus [12]) [%] | Activity (Rattus norvegicus [13]) [%] | Activity (Rattus norvegicus [14]) [%] | Activity (Rattus norvegicus [15]) [%] | Activity (Rattus norvegicus [16]) [%] | Activity (Rattus norvegicus [17]) [%] |
| --- | --- | --- | --- | --- | --- | --- | --- | --- | --- | --- | --- | --- | --- | --- | --- | --- | --- |
| Br.CN1CCc2c(c(O)c(O)c3c2CCC3)C1 | 4.8 | 2.6 | 8.2 | 3 | -3.6 | 4.1 | 3 | -1.1 | 150 | – | – | – | – | – | – | – | – |
| CC(=O)Oc1c2c(c3c(c1OC(C)=O)CN(C)CC3)CCC2.O=C(O)C(F)(F)F | 7.3 | 5.2 | 14.6 | 0.3 | -5.1 | 2.6 | -0.6 | -13.1 | 200 | – | – | – | – | – | – | – | – |
| COc1ccc(C(=O)N2CCc3c(c4c(c(OC)c3OC)CCC4)C2)cc1OC | – | – | – | – | – | – | – | – | > 1000 | -8.8 | 0.2 | -1.2 | 3.4 | -12.1 | -6.5 | -3.4 | -6 |
| Br.COc1ccc(CN2CCc3c(c4c(c(OC)c3OC)CCC4)C2)cc1OC | 0.4 | -2.4 | 0.4 | -9.1 | 3.3 | 1 | -1 | -8.4 | 200 | – | – | – | – | – | – | – | – |
| COc1ccc(CC(=O)N2CCc3c(c4c(c(OC)c3OC)CCC4)C2)cc1OC | – | – | – | – | – | – | – | – | 500 | – | – | – | – | – | – | – | – |
| Br.COc1ccc(CCN2CCc3c(c4c(c(OC)c3OC)CCC4)C2)cc1OC | – | – | – | – | – | – | – | – | 100 | – | – | – | – | – | – | – | – |
| COc1c2c(c3c(c1OC)CCN(C(=O)C(c1ccccc1)c1ccccc1)C3)CCC2 | – | – | – | – | – | – | – | – | 200 | – | – | – | – | – | – | – | – |
| COc1c2c(c3c(c1OC)CCN(CC(c1ccccc1)c1ccccc1)C3)CCC2 | – | – | – | – | – | – | – | – | > 1000 | -3.4 | 18.5 | 8.6 | 25.4 | -5 | -0.5 | -2 | 4 |
| Br.CN1CCc2c(O)c(O)c3c(c2C1)CCC3 | 5.1 | -3.5 | -1.9 | -8.6 | -8.6 | 4.6 | -5.7 | -9.1 | 160 | – | – | – | – | – | – | – | – |
| CC(=O)Oc1c2c(c3c(c1OC(C)=O)CCN(C)C3)CCC2 | – | – | – | – | – | – | – | – | 150 | – | – | – | – | – | – | – | – |
| C[C@](N)(Cc1ccc(O)c(O)c1)C(=O)O [METHYLDOPA] | 104.1 | -50 | 106.2 | -19.3 | -16.5 | 31 | -47.7 | -31 | – | – | – | – | – | – | – | – | – |
